Test results reported in ChEMBL document CHEMBL4622865, “Sulfonamide-based 4-anilinoquinoline derivatives as novel dual Aurora kinase (AURKA/B) inhibitors: Synthesis, biological evaluation and in silico insights” (Bioorg Med Chem, 2020).

Columns and labels:
[1] = molecular target: T1, Aurora kinase A (Homo sapiens) (UniProt O14965); assay: Inhibition of human Aurora A using [H-LRRASLG] as substrate at 20 uM in presence of [gamma-33P]-ATP incubated for 2 hrs by hotspot kinase assay relative to control
T1 sequence (whole entry): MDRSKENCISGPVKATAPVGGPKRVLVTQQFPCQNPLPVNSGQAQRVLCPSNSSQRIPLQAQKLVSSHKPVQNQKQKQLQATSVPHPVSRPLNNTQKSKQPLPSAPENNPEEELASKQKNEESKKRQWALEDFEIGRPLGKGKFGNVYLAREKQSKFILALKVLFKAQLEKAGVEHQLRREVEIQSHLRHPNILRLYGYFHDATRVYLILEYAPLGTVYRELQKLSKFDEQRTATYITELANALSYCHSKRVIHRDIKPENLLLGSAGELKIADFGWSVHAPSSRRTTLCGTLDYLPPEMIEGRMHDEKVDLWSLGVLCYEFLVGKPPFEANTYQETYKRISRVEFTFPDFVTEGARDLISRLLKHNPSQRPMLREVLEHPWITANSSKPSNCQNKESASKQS

[2] = molecular target: T2, Aurora kinase B (Homo sapiens, UniProt Q96GD4); assay: Inhibition of human Aurora B using [H-LRRASLG] as substrate at 20 uM in presence of [gamma-33P]-ATP incubated for 2 hrs by hotspot kinase assay relative to control
[3] = molecular target: T3, Aurora kinase A (Homo sapiens, UniProt O14965); assay: Inhibition of human Aurora A using [H-LRRASLG] as substrate in presence of [gamma-33P]-ATP incubated for 2 hrs by hotspot kinase assay
T3 sequence (O14965 whole entry): T1 sequence (whole entry)

[4] = molecular target: T2, Aurora kinase B; assay: Inhibition of human Aurora B using [H-LRRASLG] as substrate in presence of [gamma-33P]-ATP incubated for 2 hrs by hotspot kinase assay
[5] = tested on: K562; assay: Antitumor activity against human K562 cells assessed as growth inhibition at 10^-5 M incubated for 48 hrs by SRB assay relative to control; format: functional; details: K562, 48 h, read-out: GI
[6] = tested on: SR; assay: Antitumor activity against human SR cells assessed as growth inhibition at 10-'5 M incubated for 48 hrs by SRB assay relative to control; format: functional
[7] = tested on: HOP-92; assay: Antitumor activity against human HOP92 cells assessed as growth inhibition at 10-'5 M incubated for 48 hrs by SRB assay relative to control; format: functional
[8] = tested on: NCI-H522; assay: Antitumor activity against human NCI-H522 cells assessed as growth inhibition at 10-'5 M incubated for 48 hrs by SRB assay relative to control; format: functional
[9] = tested on: HCT-15; assay: Antitumor activity against human HCT15 cells assessed as growth inhibition at 10-'5 M incubated for 48 hrs by SRB assay relative to control; format: functional
[10] = tested on: HT-29; assay: Antitumor activity against human HT-29 cells assessed as growth inhibition at 10-'5 M incubated for 48 hrs by SRB assay relative to control; format: functional
[11] = tested on: KM12; assay: Antitumor activity against human KM12 cells assessed as growth inhibition at 10-'5 M incubated for 48 hrs by SRB assay relative to control; format: functional
[12] = tested on: SF-268; assay: Antitumor activity against human SF268 cells assessed as growth inhibition at 10-'5 M incubated for 48 hrs by SRB assay relative to control; format: functional
[13] = tested on: SNB-19; assay: Antitumor activity against human SNB19 cells assessed as growth inhibition at 10-'5 M incubated for 48 hrs by SRB assay relative to control; format: functional
[14] = tested on: LOX IMVI; assay: Antitumor activity against human LOXIMVI cells assessed as growth inhibition at 10-'5 M incubated for 48 hrs by SRB assay relative to control; format: functional
[15] = tested on: SK-MEL-5; assay: Antitumor activity against human SK-MEL-5 cells assessed as growth inhibition at 10-'5 M incubated for 48 hrs by SRB assay relative to control; format: functional
[16] = tested on: UACC-62; assay: Antitumor activity against human UACC62 cells assessed as growth inhibition at 10-'5 M incubated for 48 hrs by SRB assay relative to control; format: functional
[17] = tested on: NCI/ADR-RES; assay: Antitumor activity against human NCI-ADR-RES cells assessed as growth inhibition at 10-'5 M incubated for 48 hrs by SRB assay relative to control; format: functional
[18] = tested on: SK-OV-3; assay: Antitumor activity against human SKOV3 cells assessed as growth inhibition at 10-'5 M incubated for 48 hrs by SRB assay relative to control; format: functional
[19] = tested on: 786-0; assay: Antitumor activity against human 786-O cells assessed as growth inhibition at 10-'5 M incubated for 48 hrs by SRB assay relative to control; format: functional
[20] = tested on: A498; assay: Antitumor activity against human A498 cells assessed as growth inhibition at 10-'5 M incubated for 48 hrs by SRB assay relative to control; format: functional
[21] = tested on: ACHN; assay: Antitumor activity against human ACHN cells assessed as growth inhibition at 10-'5 M incubated for 48 hrs by SRB assay relative to control; format: functional
[22] = tested on: CAKI-1; assay: Antitumor activity against human CAKI-1 cells assessed as growth inhibition at 10-'5 M incubated for 48 hrs by SRB assay relative to control; format: functional
[23] = tested on: RXF 393; assay: Antitumor activity against human RXF393 cells assessed as growth inhibition at 10-'5 M incubated for 48 hrs by SRB assay relative to control; format: functional
[24] = tested on: SN12C; assay: Antitumor activity against human SN12C cells assessed as growth inhibition at 10-'5 M incubated for 48 hrs by SRB assay relative to control; format: functional
[25] = tested on: UO-31; assay: Antitumor activity against human UO31 cells assessed as growth inhibition at 10-'5 M incubated for 48 hrs by SRB assay relative to control; format: functional
[26] = tested on: PC-3; assay: Antitumor activity against human PC3 cells assessed as growth inhibition at 10-'5 M incubated for 48 hrs by SRB assay relative to control; format: functional
[27] = tested on: MCF7; assay: Antitumor activity against human MCF7 cells assessed as growth inhibition at 10-'5 M incubated for 48 hrs by SRB assay relative to control; format: functional
[28] = tested on: T47D; assay: Antitumor activity against human T47D cells assessed as growth inhibition at 10-'5 M incubated for 48 hrs by SRB assay relative to control; format: functional
[29] = Antitumor activity against human […] cells assessed as growth inhibition at 10-'5 M incubated for 48 hrs by SRB assay relative to control; format: functional
[30] = tested on: EKVX; assay: Antitumor activity against human EKVX cells assessed as growth inhibition at 10-'5 M incubated for 48 hrs by SRB assay relative to control; format: functional
[31] = organism: Homo sapiens; assay: Selectivity ratio of IC50 for inhibition of human AURKB to IC50 for inhibition of human AURKA
[32] = molecular target: Calcium/calmodulin-dependent protein kinase kinase 2 (Homo sapiens) (UniProt Q96RR4); assay: Inhibition of human CAMKK2 using MBP as substrate at 20 uM in presence of [gamma-33P]-ATP incubated for 2 hrs by hotspot kinase assay relative to control
[33] = molecular target: MAP kinase-activated protein kinase 3 (Homo sapiens) (UniProt Q16644); assay: Inhibition of human MAPKAPK3 using KKLNRTLSVA as substrate at 20 uM in presence of [gamma-33P]-ATP incubated for 2 hrs by hotspot kinase assay relative to control
[34] = molecular target: Proto-oncogene tyrosine-protein kinase ROS (Homo sapiens) (UniProt P08922); assay: Inhibition of human ROS/ROS1 using KKKSPGEYVNIEFG as substrate at 20 uM in presence of [gamma-33P]-ATP incubated for 2 hrs by hotspot kinase assay relative to control
[35] = molecular target: Dual specificity testis-specific protein kinase 1 (Homo sapiens) (UniProt Q15569); assay: Inhibition of human TESK1 using cofilin as substrate at 20 uM in presence of [gamma-33P]-ATP incubated for 2 hrs by hotspot kinase assay relative to control
[36] = molecular target: Serine/threonine-protein kinase VRK2 (Homo sapiens) (UniProt Q86Y07); assay: Inhibition of human VRK2 using casein as substrate at 20 uM in presence of [gamma-33P]-ATP incubated for 2 hrs by hotspot kinase assay relative to control
[37] = tested on: HCT-116; assay: Antitumor activity against human HCT116 cells assessed as growth inhibition at 10-'5 M incubated for 48 hrs by SRB assay relative to control; format: functional
[38] = tested on: M14; assay: Antitumor activity against human M14 cells assessed as growth inhibition at 10-'5 M incubated for 48 hrs by SRB assay relative to control; format: functional
[39] = tested on: BT-549; assay: Antitumor activity against human BT549 cells assessed as growth inhibition at 10-'5 M incubated for 48 hrs by SRB assay relative to control; format: functional

T2 sequence (Q96GD4 whole entry): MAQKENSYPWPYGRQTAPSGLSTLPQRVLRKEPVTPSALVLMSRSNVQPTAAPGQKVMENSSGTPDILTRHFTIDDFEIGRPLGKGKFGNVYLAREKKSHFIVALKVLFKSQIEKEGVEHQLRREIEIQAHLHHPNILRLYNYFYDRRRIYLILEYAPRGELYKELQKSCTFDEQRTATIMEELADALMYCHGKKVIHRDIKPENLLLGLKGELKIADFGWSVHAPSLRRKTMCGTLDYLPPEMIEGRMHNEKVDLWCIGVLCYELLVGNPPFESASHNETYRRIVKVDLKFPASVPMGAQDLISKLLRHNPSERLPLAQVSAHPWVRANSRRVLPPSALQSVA
Chain of Dual specificity testis-specific protein kinase 1 (Homo sapiens) (Q15569 whole entry, looked up): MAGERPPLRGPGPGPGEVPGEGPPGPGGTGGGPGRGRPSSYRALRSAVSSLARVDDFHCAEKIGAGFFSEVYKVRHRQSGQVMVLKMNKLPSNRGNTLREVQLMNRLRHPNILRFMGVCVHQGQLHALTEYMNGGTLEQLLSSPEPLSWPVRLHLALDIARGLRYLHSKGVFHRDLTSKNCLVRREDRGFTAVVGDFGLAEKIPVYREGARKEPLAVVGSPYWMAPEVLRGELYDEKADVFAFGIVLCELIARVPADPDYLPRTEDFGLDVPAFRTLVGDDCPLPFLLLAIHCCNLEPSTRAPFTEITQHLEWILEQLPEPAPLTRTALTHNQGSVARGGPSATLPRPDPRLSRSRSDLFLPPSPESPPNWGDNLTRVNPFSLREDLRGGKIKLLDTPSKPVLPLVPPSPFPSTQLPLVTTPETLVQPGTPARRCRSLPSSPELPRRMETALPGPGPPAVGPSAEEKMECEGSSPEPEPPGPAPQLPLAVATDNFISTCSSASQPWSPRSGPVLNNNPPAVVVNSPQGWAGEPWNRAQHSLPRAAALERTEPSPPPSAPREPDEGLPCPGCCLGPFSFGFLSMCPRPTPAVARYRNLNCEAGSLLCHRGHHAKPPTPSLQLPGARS
Chain of MAP kinase-activated protein kinase 3 (Homo sapiens) (Q16644 whole entry, looked up): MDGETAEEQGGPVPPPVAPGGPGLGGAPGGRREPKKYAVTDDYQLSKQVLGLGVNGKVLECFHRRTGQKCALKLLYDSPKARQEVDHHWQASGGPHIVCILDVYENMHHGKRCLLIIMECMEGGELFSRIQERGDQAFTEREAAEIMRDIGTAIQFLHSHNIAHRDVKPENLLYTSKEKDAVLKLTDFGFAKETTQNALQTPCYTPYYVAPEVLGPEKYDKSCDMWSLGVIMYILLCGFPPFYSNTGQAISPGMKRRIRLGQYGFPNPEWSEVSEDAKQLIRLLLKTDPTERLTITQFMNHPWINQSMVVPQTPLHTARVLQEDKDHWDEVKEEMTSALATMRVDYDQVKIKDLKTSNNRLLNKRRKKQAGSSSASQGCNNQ
Chain of Serine/threonine-protein kinase VRK2 (Homo sapiens) (Q86Y07 whole entry): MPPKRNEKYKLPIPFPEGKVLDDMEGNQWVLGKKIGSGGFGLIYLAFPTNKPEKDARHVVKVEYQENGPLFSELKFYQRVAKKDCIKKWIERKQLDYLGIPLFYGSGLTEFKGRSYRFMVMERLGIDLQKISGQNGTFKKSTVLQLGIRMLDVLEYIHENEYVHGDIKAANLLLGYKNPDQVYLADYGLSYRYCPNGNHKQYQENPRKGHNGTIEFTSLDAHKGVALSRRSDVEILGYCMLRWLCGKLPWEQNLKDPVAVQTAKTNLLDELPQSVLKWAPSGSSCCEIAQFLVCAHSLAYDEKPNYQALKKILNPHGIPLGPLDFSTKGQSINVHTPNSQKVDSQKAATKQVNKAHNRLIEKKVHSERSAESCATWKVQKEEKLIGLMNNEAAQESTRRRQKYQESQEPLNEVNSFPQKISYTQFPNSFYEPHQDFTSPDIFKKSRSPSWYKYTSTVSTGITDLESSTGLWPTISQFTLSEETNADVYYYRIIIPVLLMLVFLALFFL
Chain of Proto-oncogene tyrosine-protein kinase ROS (Homo sapiens) (P08922 whole entry): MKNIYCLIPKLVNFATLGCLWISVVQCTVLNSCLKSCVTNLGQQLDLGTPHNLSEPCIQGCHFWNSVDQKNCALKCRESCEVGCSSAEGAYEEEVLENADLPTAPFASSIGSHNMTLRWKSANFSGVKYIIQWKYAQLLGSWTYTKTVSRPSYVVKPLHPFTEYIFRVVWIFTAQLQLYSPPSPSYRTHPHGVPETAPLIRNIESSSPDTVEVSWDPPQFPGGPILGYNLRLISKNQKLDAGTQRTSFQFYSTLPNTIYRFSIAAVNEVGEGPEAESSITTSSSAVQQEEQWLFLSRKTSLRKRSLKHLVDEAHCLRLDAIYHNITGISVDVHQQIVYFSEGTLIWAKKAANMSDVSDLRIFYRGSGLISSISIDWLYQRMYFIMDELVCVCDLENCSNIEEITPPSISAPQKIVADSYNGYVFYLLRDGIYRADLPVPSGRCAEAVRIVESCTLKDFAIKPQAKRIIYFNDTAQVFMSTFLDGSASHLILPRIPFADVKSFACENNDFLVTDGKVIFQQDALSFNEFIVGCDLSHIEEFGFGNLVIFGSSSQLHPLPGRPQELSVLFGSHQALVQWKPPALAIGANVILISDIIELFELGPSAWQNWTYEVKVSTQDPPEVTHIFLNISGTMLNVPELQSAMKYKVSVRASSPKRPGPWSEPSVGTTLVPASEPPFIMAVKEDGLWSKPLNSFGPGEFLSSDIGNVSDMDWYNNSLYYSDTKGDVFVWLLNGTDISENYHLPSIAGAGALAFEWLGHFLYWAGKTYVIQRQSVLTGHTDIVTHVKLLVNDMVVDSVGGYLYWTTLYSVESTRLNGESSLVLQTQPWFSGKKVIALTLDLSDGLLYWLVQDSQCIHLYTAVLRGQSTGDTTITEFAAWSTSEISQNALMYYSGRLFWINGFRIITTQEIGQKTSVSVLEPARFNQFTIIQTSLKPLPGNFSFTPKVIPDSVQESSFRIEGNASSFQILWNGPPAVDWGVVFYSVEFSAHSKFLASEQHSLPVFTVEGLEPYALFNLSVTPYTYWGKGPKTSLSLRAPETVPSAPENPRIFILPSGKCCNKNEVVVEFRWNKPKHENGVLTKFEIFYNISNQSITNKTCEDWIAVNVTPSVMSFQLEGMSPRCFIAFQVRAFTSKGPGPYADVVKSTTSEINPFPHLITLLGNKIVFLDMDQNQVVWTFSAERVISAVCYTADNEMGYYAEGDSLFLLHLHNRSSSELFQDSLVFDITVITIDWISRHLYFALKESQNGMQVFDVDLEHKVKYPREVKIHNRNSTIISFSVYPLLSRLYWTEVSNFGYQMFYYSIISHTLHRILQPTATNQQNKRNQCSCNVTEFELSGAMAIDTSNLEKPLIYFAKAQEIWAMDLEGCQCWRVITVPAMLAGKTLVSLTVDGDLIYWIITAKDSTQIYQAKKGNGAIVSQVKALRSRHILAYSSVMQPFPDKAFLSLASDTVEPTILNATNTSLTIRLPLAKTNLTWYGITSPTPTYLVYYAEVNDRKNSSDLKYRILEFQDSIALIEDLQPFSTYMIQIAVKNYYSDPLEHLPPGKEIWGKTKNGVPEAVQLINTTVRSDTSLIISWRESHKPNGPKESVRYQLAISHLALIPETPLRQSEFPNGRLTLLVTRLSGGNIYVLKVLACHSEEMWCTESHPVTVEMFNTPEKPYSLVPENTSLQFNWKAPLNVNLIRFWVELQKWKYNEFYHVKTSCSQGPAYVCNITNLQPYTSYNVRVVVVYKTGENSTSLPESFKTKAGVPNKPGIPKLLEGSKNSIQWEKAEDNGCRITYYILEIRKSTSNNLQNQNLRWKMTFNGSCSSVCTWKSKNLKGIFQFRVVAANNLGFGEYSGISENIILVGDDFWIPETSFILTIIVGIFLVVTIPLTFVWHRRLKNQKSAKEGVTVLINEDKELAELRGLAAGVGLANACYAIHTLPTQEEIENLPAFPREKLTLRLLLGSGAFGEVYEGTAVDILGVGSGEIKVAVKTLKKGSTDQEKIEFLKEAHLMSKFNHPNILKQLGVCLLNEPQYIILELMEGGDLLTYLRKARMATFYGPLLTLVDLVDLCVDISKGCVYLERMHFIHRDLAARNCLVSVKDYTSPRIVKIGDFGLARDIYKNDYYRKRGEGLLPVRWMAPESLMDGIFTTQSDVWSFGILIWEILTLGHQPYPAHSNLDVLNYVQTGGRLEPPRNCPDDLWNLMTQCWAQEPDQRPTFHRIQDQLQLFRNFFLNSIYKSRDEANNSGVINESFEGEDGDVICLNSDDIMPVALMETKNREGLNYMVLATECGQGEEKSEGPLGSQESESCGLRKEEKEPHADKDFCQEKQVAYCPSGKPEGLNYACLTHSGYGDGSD
Chain of Calcium/calmodulin-dependent protein kinase kinase 2 (Homo sapiens) (Q96RR4 2-588 limits assumed): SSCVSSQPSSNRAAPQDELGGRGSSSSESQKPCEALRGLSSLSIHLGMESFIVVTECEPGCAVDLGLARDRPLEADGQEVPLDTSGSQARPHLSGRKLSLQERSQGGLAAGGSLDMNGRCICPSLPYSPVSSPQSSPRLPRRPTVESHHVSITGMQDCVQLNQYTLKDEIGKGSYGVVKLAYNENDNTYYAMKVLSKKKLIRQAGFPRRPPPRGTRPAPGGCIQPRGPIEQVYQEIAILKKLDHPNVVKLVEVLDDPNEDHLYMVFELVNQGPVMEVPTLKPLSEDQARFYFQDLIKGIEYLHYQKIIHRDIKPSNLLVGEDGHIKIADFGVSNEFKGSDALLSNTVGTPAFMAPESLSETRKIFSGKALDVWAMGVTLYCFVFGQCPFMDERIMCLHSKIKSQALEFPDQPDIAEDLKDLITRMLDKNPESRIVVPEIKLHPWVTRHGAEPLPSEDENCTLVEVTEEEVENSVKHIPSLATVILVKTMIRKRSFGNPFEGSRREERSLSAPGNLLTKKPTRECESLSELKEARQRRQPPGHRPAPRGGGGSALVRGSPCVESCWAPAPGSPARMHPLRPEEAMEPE

Row | SMILES | inhibition [1] [%] | inhibition [2] [%] | IC50 [3] [nM] | IC50 [4] [nM] | growth inhibition (GI) [8] | growth inhibition (GI) [9] | growth inhibition (GI) [11] [%] | growth inhibition (GI) [17] | growth inhibition (GI) [19] | growth inhibition (GI) [20] | growth inhibition (GI) [25] | growth inhibition (GI) [37] [%] | further results
1 | CCOC(=O)c1cnc2cc(Cl)cc(Cl)c2c1Nc1cccc(S(=O)(=O)NC)c1 | 58.6 | 90.8 | 930 | 90 | 35% | 34% | 64 | >=25% | >=25% | 54% | 50% |  | inhibition of growth at 10 µM [5]: 35%; growth inhibition (GI) [6]: >=25%; growth inhibition (GI) [7]: 53%; growth inhibition (GI) [10]: >=25%; growth inhibition (GI) [12]: >=25%; growth inhibition (GI) [13]: >=25%; growth inhibition (GI) [14]: >=25%; growth inhibition (GI) [15]: 31%; growth inhibition (GI) [16]: 34%; growth inhibition (GI) [18]: 31%; growth inhibition (GI) [21]: 39%; growth inhibition (GI) [22]: 41%; growth inhibition (GI) [23]: 33%; growth inhibition (GI) [24]: >=25%; growth inhibition (GI) [26]: 30%; growth inhibition (GI) [27]: 30%; growth inhibition (GI) [28]: >=25%; growth inhibition (GI) [29]: 64%
2 | CCOC(=O)c1cnc2cc(Cl)cc(Cl)c2c1Nc1cccc(S(N)(=O)=O)c1 | 61.3 | 71.8 | 7640 | 6890 |  |  |  |  | >50% | >=20% |  | >50 | inhibition [32]: 33.7%; inhibition [33]: 3.1%; inhibition [34]: 20.1%; inhibition [35]: 4.01%; inhibition [36]: 31.8%; growth inhibition (GI) [38]: >=20%
3 | CCOC(=O)c1cnc2ccc(C)cc2c1Nc1cccc(S(N)(=O)=O)c1 | 14.9 | 57.7 |  | 8330 |  |  |  |  |  |  |  | >50 | growth inhibition (GI) [39]: >=20%
4 | CCOC(=O)c1cnc2ccc(Br)cc2c1Nc1cccc(S(=O)(=O)NC)c1 | 10.7 | 21.4 |  |  | >=20% | >=20% |  | >=20% |  | >=20% | >=20% |  | 

Continued, in another order:

Row | inhibition [1] [%] | inhibition [2] [%] | IC50 [3] [nM] | IC50 [4] [nM] | SMILES | growth inhibition (GI) [8] | growth inhibition (GI) [9] | growth inhibition (GI) [11] [%] | growth inhibition (GI) [17] | growth inhibition (GI) [19] | growth inhibition (GI) [20] | growth inhibition (GI) [25] | growth inhibition (GI) [37] [%] | further results
5 | 6.43 | 18.7 |  |  | CCOC(=O)c1cnc2ccc(C)cc2c1Nc1cccc(S(=O)(=O)NC)c1 |  |  |  |  |  |  |  |  | 
6 | 64.4 | 81 | 980 | 2990 | CCOC(=O)c1cnc2ccc(C)cc2c1Nc1cccc(NS(C)(=O)=O)c1 |  |  | >50 |  |  |  |  |  | growth inhibition (GI) [30]: >=20%; Ratio IC50 [31]: 3
